Results: patent US20240180900A1, “COMPOUNDS AND METHODS FOR THE TARGETED DEGRADATION OF ANDROGEN RECEPTOR” (Arvinas Operations, Inc., priority 2022, published 2024)
“Also recorded” adds a separate entry of the source.

Assay: Phase 1/2 study in mCRPC participants: safety
[1] = all causality SAEs, Phases 1 and 2 combined, N = 47
[2] = all-causality TEAEs, Phase 1, N = 34

Compound: COc1cc(O[C@H]2C(C)(C)[C@H](NC(=O)c3ccc(N4CCC(CN5CCN(c6ccc(C(=O)N[C@H]7CCC(=O)NC7=O)c(F)c6)CC5)CC4)cc3)C2(C)C)ccc1C#N [Compound A, 4-(4-((1-(4-(((1R,3R)-3-(4-cyano-3-methoxyphenoxy)-2,2,4,4-tetramethylcyclobutyl)carbamoyl)phenyl)piperidin-4-yl)methyl)piperazin-1-yl)-N—((S)-2,6-dioxopiperidin-3-yl)-2-fluorobenzamide]
- DLTs (Part A (Phase 1 dose escalation), 20 mg to 500 mg QD): No DLTs have been reported
- Grade 4 or 5 TRAEs (Phase 1): no Grade 4 or 5 TRAEs
- TRAE of Grade 3 aspartate aminotransferase increased (Phase 1): 1
- TRAE of Grade 3 fatigue (Phase 1): 1
- participants who discontinued study treatment due to a TEAE (Phase 1): No participant
- treatment discontinuation due to TRAE (Phase 1): no treatment discontinuation
- participants with treatment-emergent SAEs regardless of attribution (Phase 1, of 34): 11 participants
- tolerability (Phase 1/2, post-NHA mCRPC patients, 40 mg to 500 mg once daily): well-tolerated; also recorded: well tolerated
- treatment-related SAEs (Phase 1 and Phase 2): No treatment-related SAEs were reported
- grade of the majority of TRAEs (Phase 1 dose escalation and Phase 2 interim data): Grade 1/2
- SAEs (Phase 2): no SAEs were reported
- TRAE abdominal pain (Phase 2): 2 (15.4%) participants
- TRAE alopecia (Phase 2): 2 (15.4%) participants
- TRAE dysgeusia (Phase 2): 2 (15.4%) participants
- TRAE nausea (Phase 2): 2 (15.4%) participants
- TRAE of Grade 3 abdominal pain (Phase 2): 1
- dose reductions due to a TRAE (Phase 2): two
- treatment discontinuation due to a TRAE (Phase 2): one
- participants who discontinued treatment due to a TEAE (Phase 2, Grade 3 abdominal pain, related): One
- participants with TEAEs regardless of attribution (Phases 1 and 2, of 47): 44 participants
- participants with TEAEs at least potentially related to Compound A (Phases 1 and 2 combined, of 47): 25 participants
- Blood and lymphatic system disorders: Any Grade [1]: 1 participants
- Blood and lymphatic system disorders: Grade 3 [1]: 0 participants
- Blood and lymphatic system disorders: Grade 4 [1]: 1 (2.1) participants
- Blood and lymphatic system disorders: Grade 5 [1]: 0 participants
- Brain stem stroke: Any Grade [1]: 1 participants
- Brain stem stroke: Grade 3 [1]: 0 participants
- Brain stem stroke: Grade 4 [1]: 0 participants
- Cystitis noninfective: Any Grade [1]: 1 participants
- Cystitis noninfective: Grade 3 [1]: 1 participants
- Cystitis noninfective: Grade 4 [1]: 0 participants
- Cystitis noninfective: Grade 5 [1]: 0 participants
- Diarrhoea: Any Grade [1]: 1 participants
- Diarrhoea: Grade 3 [1]: 1 participants
- Diarrhoea: Grade 4 [1]: 0 participants
- Diarrhoea: Grade 5 [1]: 0 participants
- Dyspnoea: Any Grade [1]: 1 participants
- Dyspnoea: Grade 3 [1]: 1 participants
- Dyspnoea: Grade 4 [1]: 0 participants
- Dyspnoea: Grade 5 [1]: 0 participants
- Febrile neutropenia: Any Grade [1]: 1 participants
- Febrile neutropenia: Grade 3 [1]: 0 participants
- Febrile neutropenia: Grade 5 [1]: 0 participants
- Gastrointestinal disorders: Any Grade [1]: 1 participants
- Gastrointestinal disorders: Grade 3 [1]: 1 participants
- Gastrointestinal disorders: Grade 4 [1]: 0 participants
- Gastrointestinal disorders: Grade 5 [1]: 0 participants
- Grade 2 lethargy (SAE) [1]: one
- Haematuria: Any Grade [1]: 1 participants
- Haematuria: Grade 3 [1]: 1 participants
- Haematuria: Grade 4 [1]: 0 participants
- Haematuria: Grade 5 [1]: 0 participants
- Hypoxia: Any Grade [1]: 1 participants
- Hypoxia: Grade 3 [1]: 1 participants
- Hypoxia: Grade 4 [1]: 0 participants
- Hypoxia: Grade 5 [1]: 0 participants
- Infections and infestations: Any Grade [1]: 2 participants
- Infections and infestations: Grade 3 [1]: 2 participants
- Infections and infestations: Grade 4 [1]: 0 participants
- Infections and infestations: Grade 5 [1]: 0 participants
- Lethargy: Any Grade [1]: 1 participants
- Lethargy: Grade 3 [1]: 0 participants
- Lethargy: Grade 4 [1]: 0 participants
- Lethargy: Grade 5 [1]: 0 participants
- Nervous system disorders: Any Grade [1]: 4 participants
- Nervous system disorders: Grade 3 [1]: 2 participants
- Nervous system disorders: Grade 4 [1]: 0 participants
- Nervous system disorders: Grade 5 [1]: 1 (2.1) participants
- Participants with any serious TEAEs: Any Grade [1]: 11 participants
- Participants with any serious TEAEs: Grade 3 [1]: 8 participants
- Participants with any serious TEAEs: Grade 4 [1]: 1 (2.1) participants
- Participants with any serious TEAEs: Grade 5 [1]: 1 (2.1) participants
- Pneumonia: Any Grade [1]: 1 participants
- Pneumonia: Grade 3 [1]: 1 participants
- Pneumonia: Grade 4 [1]: 0 participants
- Pneumonia: Grade 5 [1]: 0 participants
- Renal and urinary disorders: Any Grade [1]: 3 participants
- Renal and urinary disorders: Grade 3 [1]: 3 participants
- Renal and urinary disorders: Grade 4 [1]: 0 participants
- Renal and urinary disorders: Grade 5 [1]: 0 participants
- Respiratory, thoracic and mediastinal disorders: Any Grade [1]: 2 participants
- Respiratory, thoracic and mediastinal disorders: Grade 3 [1]: 2 participants
- Respiratory, thoracic and mediastinal disorders: Grade 4 [1]: 0 participants
- Respiratory, thoracic and mediastinal disorders: Grade 5 [1]: 0 participants
- Soft tissue infection: Any Grade [1]: 1 participants
- Soft tissue infection: Grade 3 [1]: 1 participants
- Soft tissue infection: Grade 4 [1]: 0 participants
- Soft tissue infection: Grade 5 [1]: 0 participants
- Spinal cord compression: Any Grade [1]: 1 participants
- Spinal cord compression: Grade 3 [1]: 1 participants
- Spinal cord compression: Grade 4 [1]: 0 participants
- Spinal cord compression: Grade 5 [1]: 0 participants
- Tremor: Any Grade [1]: 1 participants
- Tremor: Grade 3 [1]: 1 participants
- Tremor: Grade 4 [1]: 0 participants
- Tremor: Grade 5 [1]: 0 participants
- Urinary tract obstruction: Any Grade [1]: 1 participants
- Urinary tract obstruction: Grade 3 [1]: 1 participants
- Urinary tract obstruction: Grade 4 [1]: 0 participants
- Urinary tract obstruction: Grade 5 [1]: 0 participants
- Alopecia: Any Grade [2]: 4 participants
- Alopecia: Grade 3 [2]: 0 participants
- Alopecia: Grade 4 [2]: 0 participants
- Alopecia: Grade 5 [2]: 0 participants
- Anaemia: Any Grade [2]: 6 participants
- Anaemia: Grade 3 [2]: 0 participants
- Anaemia: Grade 4 [2]: 0 participants
- Anaemia: Grade 5 [2]: 0 participants
- Aspartate aminotransferase increased: Any Grade [2]: 5 participants
- Aspartate aminotransferase increased: Grade 3 [2]: 1 participants
- Aspartate aminotransferase increased: Grade 4 [2]: 0 participants
- Aspartate aminotransferase increased: Grade 5 [2]: 0 participants
- Blood alkaline phosphatase increased: Any Grade [2]: 8 participants
- Blood alkaline phosphatase increased: Grade 3 [2]: 0 participants
- Blood alkaline phosphatase increased: Grade 4 [2]: 0 participants
- Blood alkaline phosphatase increased: Grade 5 [2]: 0 participants
- Blood and lymphatic system disorders: Any Grade [2]: 7 participants
- Blood and lymphatic system disorders: Grade 3 [2]: 0 participants
- Blood and lymphatic system disorders: Grade 4 [2]: 1 participants
- Blood and lymphatic system disorders: Grade 5 [2]: 0 participants
- Blood creatinine increased: Any Grade [2]: 7 participants
- Blood creatinine increased: Grade 3 [2]: 0 participants
- Blood creatinine increased: Grade 4 [2]: 0 participants
- Blood creatinine increased: Grade 5 [2]: 0 participants
- Constipation: Any Grade [2]: 4 participants
- Constipation: Grade 3 [2]: 0 participants
- Constipation: Grade 4 [2]: 0 participants
- Constipation: Grade 5 [2]: 0 participants
- Cough: Any Grade [2]: 4 participants
- Cough: Grade 3 [2]: 0 participants
- Cough: Grade 4 [2]: 0 participants
- Cough: Grade 5 [2]: 0 participants
- Decreased appetite: Any Grade [2]: 5 participants
- Decreased appetite: Grade 3 [2]: 0 participants
- Decreased appetite: Grade 4 [2]: 0 participants
- Decreased appetite: Grade 5 [2]: 0 participants
- Diarrhoea: Any Grade [2]: 7 participants
- Diarrhoea: Grade 3 [2]: 2 participants
- Diarrhoea: Grade 4 [2]: 0 participants
- Diarrhoea: Grade 5 [2]: 0 participants
- Dyspnoea: Any Grade [2]: 4 participants
- Dyspnoea: Grade 3 [2]: 1 participants
- Dyspnoea: Grade 4 [2]: 0 participants
- Dyspnoea: Grade 5 [2]: 0 participants
- Fatigue: Any Grade [2]: 12 participants
- Fatigue: Grade 3 [2]: 1 participants
- Fatigue: Grade 4 [2]: 0 participants
